Test systems include Klebsiella pneumoniae M6; Staphylococcus aureus 15; Escherichia coli 078; Escherichia coli UB1005; Streptococcus agalactiae; Escherichia coli BL21; Escherichia coli E44813.
Assay in all cases: ≥ marks a high value that may be exact or a test limit, other limits are often not marked, values filed in µg/mL are converted to µM
Assay [1] relates to Mannheimia haemolytica 82-25.
The test system of assay [2] is Acinetobacter baumannii ATCC 17987.
Assay [3] concerns Acinetobacter baumannii AYE.
For assay [4], the system named is Enterococcus faecalis NCTC 12201.
Assay [5] concerns Enterococcus faecalis NCTC 12204.
The test system of assay [6] is Enterococcus faecalis NCTC 775.
In assay [7] the test system is Escherichia coli NCTC 12923.
Assay [8] relates to Klebsiella pneumoniae NCTC 13368.
The test system of assay [9] is Pseudomonas aeruginosa NCTC 13437.
Assay [10] deals with Pseudomonas aeruginosa PAO1.
The subject of assay [11] is Pseudomonas syringae pv. tomato.
In assay [12] the test system is Staphylococcus aureus NCTC 9144.
For assay [13], the system named is Xanthomonas axonopodis pv. phaseoli.
The subject of assay [14] is Escherichia coli ATCC 25922.
In assay [15] the test system is Lacticaseibacillus rhamnosus 7469.
The subject of assay [16] is Pseudomonas aeruginosa ATCC 27853.
For assay [17], the system named is Salmonella enterica subsp. enterica serovar Pullorum ATCC 7913.
In assay [18] the test system is Salmonella enterica subsp. enterica serovar Typhimurium ATCC 14028.
The subject of assay [19] is Salmonella enterica subsp. enterica serovar Typhimurium C77-31.
The subject of assay [20] is Staphylococcus aureus ATCC 25923.
Assay [21] has as its system Staphylococcus aureus ATCC 29213.
Assay [22] concerns Staphylococcus epidermidis ATCC 12228.
Assay [23] relates to Streptococcus agalactiae CICC 10465.
Assay [24] relates to Streptococcus thermophilus YM-C.
The subject of assay [25] is Staphylococcus aureus ATCC 6538P.
Assay [26] deals with Staphylococcus aureus ATCC BAA-41.
The test system of assay [27] is Staphylococcus epidermidis.
Assay [28] concerns Acinetobacter baumannii ATCC 19606.
Assay [29] concerns Escherichia coli D31 CGSC 5165.
Assay [30] has as its system Pseudomonas aeruginosa ATCC 47085.
The subject of assay [31] is Staphylococcus aureus ATCC 35556.
Assay [32] deals with Bacillus subtilis CICC 24434.
In assay [33] the test system is Listeria monocytogenes CICC 21533.
Assay [34] deals with Pasteurella multocida C48-3.
Assay [35] deals with Salmonella enterica subsp. enterica serovar Choleraesuis C78-1.
The test system of assay [36] is Salmonella typhimurium SL1344.
Assay [37] concerns Shigella flexneri CICC 21534.
Assay [38] concerns Staphylococcus epidermidis LY8.

Molecules are shown by their SMILES. Converted amounts (≈) assume the structure as drawn. Where only a bound is given, the exact number is not on record here.

This note sets out measurements from DBAASP.

What is called MIC is the lowest concentration that inhibits growth of the organism. The low end stands for a more susceptible organism, the high end for a less susceptible organism.

In [1], `C[C@H](N)C(=O)N[C@@H](C)C(=O)N[C@@H](CC(=O)O)C(=O)N[C@@H](CC(=O)O)C(=O)N[C@@H](CC(=O)O)C(=O)N[C@@H](CC(=O)O)C(=O)N[C@@H](CC(=O)O)C(=O)O` [AADDDDD] gave an MIC of 30 µM (≈ 22.1 µg/mL).

For the molecule `CC[C@H](C)[C@H](NC(=O)[C@H](CCC(=O)O)NC(=O)[C@H](CC(N)=O)NC(=O)[C@H](CCCCN)NC(=O)[C@H](CC(C)C)NC(=O)[C@H](CCCCN)NC(=O)[C@H](CCCCN)NC(=O)[C@H](CCCN=C(N)N)NC(=O)[C@@H](NC(=O)[C@H](CCCCN)NC(=O)[C@H](CCC(=O)O)NC(=O)[C@H](CCCCN)NC(=O)[C@H](Cc1c[nH]c2ccccc12)NC(=O)[C@H](C)N)[C@@H](C)CC)C(=O)N[C@@H](CCCCN)C(=O)N[C@@H](CCCCN)C(=O)N[C@@H](CCCCN)C(=O)NCC(=O)N[C@@H](CCCN=C(N)N)C(=O)N[C@@H](CCCCN)C(=O)N[C@@H](C)C(=O)N[C@H](C(=O)N[C@H](C(=O)N[C@@H](C)C(=O)N[C@@H](Cc1c[nH]c2ccccc12)C(=O)O)[C@@H](C)CC)C(C)C` [AWKEKIRKKLKNEIKKKGRKAVIAW], the MIC in assay [2] was 5.24 µM (≈ 16 µg/mL); in [3], 2.62 µM (≈ 8 µg/mL); in [4] it was at least 42 µM; in [5] it was at least 42 µM; in assay [6] it was at least 42 µM; in assay [7], 2.62 µM (≈ 8 µg/mL). The minimal inhibitory concentration (MIC) was at least 42 µM with Klebsiella pneumoniae M6; at least 42 µM in assay [8]; at least 42 µM in assay [9]; above 42 µM in [10]; 0.164 µM (≈ 0.5 µg/mL) in assay [11]; at least 42 µM in the assay with Staphylococcus aureus 15. Besides, the MIC in [12] worked out at 5.24 µM (≈ 16 µg/mL); in assay [13] it was 0.164 µM (≈ 0.5 µg/mL).

Turning to `CC[C@H](C)[C@H](NC(=O)[C@H](CC(C)C)NC(=O)[C@@H](NC(=O)[C@@H](N)CC(=O)O)[C@@H](C)CC)C(=O)N[C@H](C(=O)N[C@H](C(=O)NCC(=O)NCC(N)=O)C(C)C)[C@@H](C)CC` [DILIIVGG], the MIC against Escherichia coli 078 is at least 64 µM; in assay [14], above 64 µM; against Escherichia coli UB1005, at least 64 µM; in assay [15], at least 64 µM; in [16], above 64 µM; in [17] it was at least 64 µM. Also, the minimal inhibitory concentration (MIC) in assay [18] is above 64 µM; in assay [19], at least 64 µM; in [20], above 64 µM; in assay [21], above 64 µM; in assay [22], above 64 µM; in assay [23], at least 64 µM. Also, the minimal inhibitory concentration (MIC) (in the assay on Streptococcus agalactiae; in [24]) was at least 64 µM in each case.

As for `CC[C@H](C)[C@H](NC(=O)[C@H](CCCCN)NC(=O)[C@H](CCCCN)NC(=O)[C@H](Cc1ccccc1)NC(=O)[C@H](CC(C)C)NC(=O)[C@H](CCCCN)NC(=O)[C@H](Cc1c[nH]c2ccccc12)NC(=O)[C@@H](N)CCCCN)C(=O)NCC(=O)N[C@@H](CCCCN)C(=O)N[C@H](C(=O)N[C@@H](CC(C)C)C(=O)N[C@@H](CCCCN)C(=O)N[C@H](C(=O)N[C@@H](CC(C)C)C(=O)O)C(C)C)C(C)C` [KWKLFKKIGKVLKVL], the MIC against Escherichia coli BL21 was 0.707 µM (≈ 1.29 µg/mL); in [10], 1.41 µM (≈ 2.59 µg/mL); in [25], 1.41 µM (≈ 2.59 µg/mL); in assay [26], 4 µM (≈ 7.31 µg/mL); in assay [27], 0.5 µM (≈ 0.914 µg/mL).

As for `CC[C@H](C)[C@H](NC(=O)[C@H](CCCN=C(N)N)NC(=O)CNC(=O)[C@H](CC(C)C)NC(=O)[C@@H](NC(=O)[C@H](C)NC(=O)[C@H](CCCN=C(N)N)NC(=O)CNC(=O)[C@H](C)NC(=O)CNC(=O)[C@H](CCCN=C(N)N)NC(=O)[C@H](CCSC)NC(=O)[C@H](CCCN=C(N)N)NC(=O)[C@@H](NC(=O)[C@H](Cc1c[nH]c2ccccc12)NC(=O)[C@H](CC(C)C)NC(=O)[C@H](CCC(=O)O)NC(=O)[C@H](CCCN=C(N)N)NC(=O)[C@H](CC(C)C)NC(=O)[C@@H](N)CC(C)C)[C@@H](C)O)C(C)C)C(=O)N[C@@H](CCCN=C(N)N)C(=O)NCC(=O)N[C@@H](CC(C)C)C(=O)N[C@@H](CC(C)C)C(=O)O` [LLRELWTRMRGAGRAVLGRIRGLL], the minimal inhibitory concentration (MIC) in assay [28] is 0.94 µM (≈ 2.6 µg/mL); in assay [29], 0.94 µM (≈ 2.6 µg/mL); in [30], 15 µM (≈ 41.5 µg/mL); in [31] it was 1.88 µM (≈ 5.2 µg/mL).

In the case of `CC[C@H](C)[C@H](NC(=O)[C@@H](NC(=O)[C@H](Cc1ccccc1)NC(=O)[C@H](CCCCN)NC(=O)[C@@H]1CCCN1C(=O)[C@H](CCCCN)NC(=O)[C@H](CCC(N)=O)NC(=O)[C@@H]1CCCN1C(=O)[C@H](CCCN=C(N)N)NC(=O)[C@H](CCCN=C(N)N)NC(=O)[C@@H](NC(=O)[C@H](CCCN=C(N)N)NC(=O)[C@H](Cc1c[nH]c2ccccc12)NC(=O)[C@H](CC(C)C)NC(=O)[C@H](CC(C)C)NC(=O)[C@H](CC(=O)O)NC(=O)[C@@H](NC(=O)[C@@H](NC(=O)[C@@H](N)CCCN=C(N)N)[C@@H](C)CC)[C@@H](C)CC)C(C)C)C(C)C)C(=O)N[C@H](C(=O)N[C@@H](Cc1c[nH]c2ccccc12)C(=O)N[C@H](C(=O)N[C@@H](CCCN=C(N)N)C(=O)O)C(C)C)C(C)C` [RIIDLLWRVRRPQKPKFVIVWVR], the minimal inhibitory concentration (MIC) in [32] was 0.524 µM (≈ 1.56 µg/mL); in the assay on Escherichia coli E44813 it was 4.2 µM (≈ 12.5 µg/mL); in assay [33], at least 42 µM; in assay [34], 1.05 µM (≈ 3.12 µg/mL); in assay [35] it was 0.262 µM (≈ 0.78 µg/mL); in assay [36], 0.524 µM (≈ 1.56 µg/mL). For the same molecule, the minimum inhibitory concentration (MIC) in [37] worked out at 25.2 µM (≈ 75 µg/mL); in [20], 0.0084 µM (≈ 0.025 µg/mL); in [38], 8.4 µM (≈ 25 µg/mL).
